According to EP0938471B1, “THE PREPARATION AND USE OF ORTHO-SULFONAMIDO ARYL HYDROXAMIC ACIDS AS MATRIX METALLOPROTEINASE AND TACE INHIBITORS” (priority 1996, dated 1998):
Structures can show the parent of a compound that is named as a salt. Where two headings read alike, the source gives them in different places.

How the values were obtained:
Type in all cases: biochemical
TACE = TACE (Homo sapiens, UniProt P78536); assay: TACE inhibition (fluorescent peptidyl substrate); settings: for inhibition at 1 µM: at 1µM concentration
MMP-13 = MMP-13 (Homo sapiens, UniProt P45452); assay: MMP-13 inhibition (thiopeptide or fluorescent peptide substrate assay); settings: for inhibition at 1 µM: read-out: MMP-13 % inhibition, footnote: 1µM
MMP-1 = target: T1, MMP-1 (Homo sapiens, UniProt P03956); assay: MMP-1 inhibition (thiopeptide or fluorescent peptide substrate assay); settings: for IC50: read-out: MMP-1 IC50; for MMP-1 % inhibition: concentration given as (10), unit not given; for inhibition at 1 µM: read-out: MMP-1 % inhibition, footnote: 1µM
T1 sequence (P03956 100-469): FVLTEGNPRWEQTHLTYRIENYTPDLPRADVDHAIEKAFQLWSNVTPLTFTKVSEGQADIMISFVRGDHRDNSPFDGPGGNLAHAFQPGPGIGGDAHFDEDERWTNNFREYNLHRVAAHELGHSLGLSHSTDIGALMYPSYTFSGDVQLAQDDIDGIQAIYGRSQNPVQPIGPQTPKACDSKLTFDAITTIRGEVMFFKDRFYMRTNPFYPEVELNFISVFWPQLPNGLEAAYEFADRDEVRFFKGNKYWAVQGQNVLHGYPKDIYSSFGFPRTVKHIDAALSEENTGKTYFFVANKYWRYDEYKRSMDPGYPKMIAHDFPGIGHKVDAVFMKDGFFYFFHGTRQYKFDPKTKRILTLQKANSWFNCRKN

MMP-9 = MMP-9 (Homo sapiens, UniProt P14780); assay: MMP-9 inhibition (thiopeptide or fluorescent peptide substrate assay); settings: for IC50: read-out: MMP-9 IC50; for inhibition at 1 µM: read-out: MMP-9 % inhibition, footnote: 1µM
[1] = concentration given as (.1), unit not given

TACE, sequence (P78536 215-824): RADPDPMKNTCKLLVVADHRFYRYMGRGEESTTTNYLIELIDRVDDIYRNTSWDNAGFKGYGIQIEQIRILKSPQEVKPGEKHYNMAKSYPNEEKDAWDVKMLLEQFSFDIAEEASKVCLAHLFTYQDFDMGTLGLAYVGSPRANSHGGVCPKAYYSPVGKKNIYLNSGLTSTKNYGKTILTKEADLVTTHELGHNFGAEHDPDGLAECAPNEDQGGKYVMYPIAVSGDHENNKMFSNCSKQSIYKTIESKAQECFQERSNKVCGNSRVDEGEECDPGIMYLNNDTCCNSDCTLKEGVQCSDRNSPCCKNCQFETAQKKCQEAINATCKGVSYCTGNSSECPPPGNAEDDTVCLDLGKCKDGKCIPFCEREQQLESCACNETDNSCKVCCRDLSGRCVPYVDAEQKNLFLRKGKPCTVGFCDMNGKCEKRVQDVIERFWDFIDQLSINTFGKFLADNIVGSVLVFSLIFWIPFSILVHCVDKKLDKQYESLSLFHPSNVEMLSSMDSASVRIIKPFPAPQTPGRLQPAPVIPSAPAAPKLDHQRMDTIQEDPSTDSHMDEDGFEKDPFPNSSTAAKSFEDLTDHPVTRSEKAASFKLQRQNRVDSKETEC
MMP-9, sequence (P14780 94-707): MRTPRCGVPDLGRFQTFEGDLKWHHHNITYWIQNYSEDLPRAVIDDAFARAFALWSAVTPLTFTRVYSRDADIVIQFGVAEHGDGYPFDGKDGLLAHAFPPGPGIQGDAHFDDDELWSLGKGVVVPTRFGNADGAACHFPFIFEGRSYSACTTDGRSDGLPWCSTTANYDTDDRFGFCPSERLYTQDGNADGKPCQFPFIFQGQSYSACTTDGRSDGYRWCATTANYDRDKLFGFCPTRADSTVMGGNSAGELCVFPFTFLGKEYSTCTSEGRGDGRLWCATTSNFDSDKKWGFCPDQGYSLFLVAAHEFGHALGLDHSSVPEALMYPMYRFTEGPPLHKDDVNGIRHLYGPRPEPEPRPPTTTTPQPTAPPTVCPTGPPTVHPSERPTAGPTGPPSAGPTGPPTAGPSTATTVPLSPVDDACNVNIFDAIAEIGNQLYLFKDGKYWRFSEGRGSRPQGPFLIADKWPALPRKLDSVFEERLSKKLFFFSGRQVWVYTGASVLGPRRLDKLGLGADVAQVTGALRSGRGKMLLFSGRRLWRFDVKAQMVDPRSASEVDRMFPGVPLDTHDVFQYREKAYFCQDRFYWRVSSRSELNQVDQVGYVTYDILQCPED

Row | IC50 (TACE; read-out: TACE IC50) [nM] | IC50 (MMP-13; read-out: MMP-13 IC50) [nM] | IC50 (MMP-1) [nM] | IC50 (MMP-9) [nM] | inhibition at 1 µM (TACE) [%] | SMILES | also measured
1 | 539 | 59 | 1280 | 26 | – | COC(=O)c1cccc(C(=O)NO)c1N(C)S(=O)(=O)c1ccc(OC)cc1 [Example 373, N-Hydroxy-2-[(4-methoxy-benzenesulfonyl)-methyl-amino]-isophthalamic acid methyl ester] | –
2 | – | – | – | – | 29 | COc1ccc(S(=O)(=O)N(Cc2cccnc2)c2c(C(=O)O)cccc2C(=O)NO)cc1 [Example 374, N-Hydroxy-2-[(4-methoxy-benzenesulfonyl)-pyridin-3-ylmethyl-amino]-isophthalamic acid] | inhibition at 1 µM (MMP-13): 17%; MMP-1 % inhibition (MMP-1): 56%(10); inhibition at 1 µM (MMP-9): 36%
3 | 356 | 18 | 329 | 7.1 | – | COc1ccc(S(=O)(=O)N(Cc2ccccn2)c2c(C)cccc2C(=O)NO)cc1 [Example 375, N-Hydroxy-2-[(4-methoxy-benzenesulfonyl)-pyridin-2-ylmethyl-amino]-3-methyl-benzamide] | –
4 | 645 | 18 | 391 | 8.4 | – | COc1ccc(S(=O)(=O)N(Cc2ccncc2)c2c(C)cccc2C(=O)NO)cc1 [Example 376, N-Hydroxy-2-[(4-methoxy-benzenesulfonyl)-pyridin-4-ylmethyl-amino]-3-methyl-benzamide] | –
5 | 258 | 15 | 123 | 4.7 | – | CCN(CC)Cc1ccc(CN(c2c(C)cccc2C(=O)NO)S(=O)(=O)c2ccc(OC)cc2)cc1 [Example 377, 2-[(4-Diethylaminomethyl-benzyl)-(4-methoxy-benzenesulfonyl)-amino]-N-hydroxy-3-methyl-benzamide] | –
6 | 218 | 19 | 470 | 11 | – | CCN(CC)CC#CCN(c1c(C)cccc1C(=O)NO)S(=O)(=O)c1ccc(OC)cc1 [Example 381, 2-[(4-Diethylamino-but-2-ynyl)-(4-methoxy-benzenesulfonyl)-amino]-N-hydroxy-3-methyl-benzamide] | –
7 | – | – | – | – | 45 | CCOC(=O)CCCN(c1c(C)cccc1C(=O)NO)S(=O)(=O)c1ccc(OC)cc1 [Example 383, 4-[(2-Hydroxycarbamoyl-6-methyl-phenyl)-(4-methoxy-benzenesulfonyl)-amino]-butyric acid ethyl ester] | inhibition at 1 µM (MMP-13): 48%; inhibition at 1 µM (MMP-1): 34%; inhibition at 1 µM (MMP-9): 87%
8 | – | – | – | – | 55 | CCOC(=O)CCCCN(c1c(C)cccc1C(=O)NO)S(=O)(=O)c1ccc(OC)cc1 [Example 384, 5-[(2-Hydroxycarbamoyl-6-methyl-phenyl)-(4-methoxy-benzenesulfonyl)-amino]-pentanoic acid ethyl ester] | inhibition at 1 µM (MMP-13): 61%; inhibition at 1 µM (MMP-1): 48%; inhibition at 1 µM (MMP-9): 52%
9 | – | – | – | – | 56 | COc1ccc(S(=O)(=O)N(CC(=O)OCc2ccccc2)c2c(C)cccc2C(=O)NO)cc1 [Example 385, [(2-Hydroxycarbamoyl-6-methyl-phenyl)-(4-methoxy-benzenesulfonyl)-amino]-acetic acid benzyl ester] | inhibition at 1 µM (MMP-13): 66%; inhibition at 1 µM (MMP-1): 25%; inhibition at 1 µM (MMP-9): 65%
10 | – | – | – | – | 46 | COc1ccc(S(=O)(=O)N(CC(=O)NCc2ccccn2)c2c(C)cccc2C(=O)NO)cc1 [Example 386, N-Hydroxy-2-[[(4-methoxyphenyl)sulfonyl][2-oxo-2-[(2-pyridinylmethyl)amino]ethyl]amino]-3-methylbenzamide] | MMP-13 % inhibition (MMP-13; [1]): 11%(.1); inhibition at 1 µM (MMP-1): 21%; MMP-9 % inhibition (MMP-9; [1]): 16%(.1)
11 | – | 307 | 2720 | 96 | 38 | COc1ccc(S(=O)(=O)N(CC(=O)N2CCN(C)CC2)c2c(C)cccc2C(=O)NO)cc1 [Example 387, N-Hydroxy-2-{(4-methoxy-benzenesulfonyl)-[2-(4-methyl-piperazin-1-yl)-2-oxo-ethyl]-amino}-3-methyl-benzamide] | –
12 | – | – | – | – | 35 | COc1ccc(S(=O)(=O)N(CCO)c2c(C)cccc2C(=O)NO)cc1 [Example 388, N-Hydroxy-2-[(2-hydroxy-ethyl)-(4-methoxy-benzenesulfonyl)-amino]-3-methyl-benzamide] | inhibition at 1 µM (MMP-13): 39%; MMP-1 % inhibition (MMP-1): 66%(10); inhibition at 1 µM (MMP-9): 47%
13 | 633 | 39 | 63 | 2 | – | COc1ccc(S(=O)(=O)N(Cc2ccccc2)c2c(C)cc(N(C)C)cc2C(=O)NO)cc1 [Example 389, 2-[Benzyl-(4-methoxy-benzenesulfonyl)-amino]-5-dimethylamino-N-hydroxy-3-methyl-benzamide] | –
14 | – | – | 176 | 6.9 | – | COc1ccc(S(=O)(=O)N(Cc2ccc(OCCN3CCCCC3)cc2)c2c(C)cccc2C(=O)NO)cc1 [Example 393, N-Hydroxy-2-[[(4-methoxyphenyl)sulfonyl][[4-[2-(1-piperidinyl)ethoxy]phenyl]methyl]amino]-3-methylbenzamide] | IC50 (TACE): 277 nM; IC50 (MMP-13): 56 nM
15 | 215 | 8.8 | 96 | 2.3 | – | CCN(CC)CCOc1ccc(CN(c2c(C)cccc2C(=O)NO)S(=O)(=O)c2ccc(OC)cc2)cc1 [Example 394, 2-[[4-(2-Diethylamino-ethoxy)-benzyl]-(4-methoxy-benzenesulfonyl)-amino]-N-hydroxy-3-methyl-benzamide] | –
16 | 363 | 35 | 184 | 6.3 | – | COc1ccc(S(=O)(=O)N(Cc2ccc(C(=O)NCCN3CCCCC3)cc2)c2c(C)cccc2C(=O)NO)cc1 [Example 396] | –

Row | SMILES | IC50 (TACE; read-out: TACE IC50) [nM] | IC50 (MMP-13; read-out: MMP-13 IC50) [nM] | IC50 (MMP-1) [nM] | IC50 (MMP-9) [nM] | inhibition at 1 µM (TACE) [%] | also measured
17 | COc1ccc(S(=O)(=O)N(Cc2ccc(CN(C)C)cc2)c2c(C)cccc2C(=O)NO)cc1 [Example 378, 2-[(4-Dimethylaminomethyl-benzyl)-(4-methoxy-benzenesulfonyl)-amino]-N-hydroxy-3-methyl-benzamide] | 243 | 11 | 213 | 2.9 | – | –
18 | COc1ccc(S(=O)(=O)N(Cc2ccc(OCCN3CCCCC3)cc2)c2c(C)cc(Br)cc2C(=O)NO)cc1 [Example 395, 5-Bromo-N-hydroxy-2-{(4-methoxy-benzenesulfonyl)-[4-(2-piperidin-1-yl-ethoxy)-benzyl]-amino}-3-methyl-benzamide] | 108 | 3.1 | 35 | 2.3 | – | –
19 | COc1ccc(-c2ccc(-c3cc(C)c(N(Cc4cccnc4)S(=O)(=O)c4ccc(OC)cc4)c(C(=O)NO)c3)cc2)cc1 [Example 399, 4"-Methoxy-4-[(4-methoxy-benzenesulfonyl)-pyridin-3-ylmethyl-amino]-5-methyl-[1,1';4',1"]terphenyl-3-carboxylic acid hydroxyamide hydrochloride salt] | – | 41 | 2200 | 45 | 25 | –
20 | COc1ccc(S(=O)(=O)N(Cc2cccnc2)c2c(C)cc(-c3cccc([N+](=O)[O-])c3)cc2C(=O)NO)cc1 [Example 400, 4-[(4-Methoxy-benzenesulfonyl)-pyridin-3-ylmethyl-amino]-5-methyl-3'-nitro-biphenyl-3-carboxylic acid hydroxyamide hydrochloride salt] | 231 | 4.9 | 295 | 6 | – | –
21 | COc1ccc(-c2cc(C)c(N(Cc3cccnc3)S(=O)(=O)c3ccc(OC)cc3)c(C(=O)NO)c2)cc1 [Example 401, 4'-Methoxy-4-[(4-methoxy-benzenesulfonyl)-pyridin-3-ylmethyl-amino]-5-methyl-biphenyl-3-carboxylic acid hydroxyamide hydrochloride salt] | 146 | 2.8 | 176 | 1.4 | – | –
22 | COc1ccc(S(=O)(=O)N(Cc2cccnc2)c2c(C)cc(-c3cc4ccccc4s3)cc2C(=O)NO)cc1 [Example 402, 5-Benzo[b]thiophen-2-yl-N-hydroxy-2-[(4-methoxy-benzenesulfonyl)-pyridin-3-ylmethyl-amino]-3-methyl-benzamide hydrochloride salt] | 639 | 8.5 | 543 | 2.6 | – | –
23 | COc1ccc(S(=O)(=O)N(Cc2cccnc2)c2c(C)cc(-c3ccc(OC(F)(F)F)cc3)cc2C(=O)NO)cc1 [Example 404, 4-[(4-Methoxy-benzenesulfonyl)-pyridin-3-ylmethyl-amino]-5-methyl-4'-trifluoromethoxy-biphenyl-3-carboxylic acid hydroxyamide hydrochloride salt] | – | 9.5 | 1800 | 5.9 | 54 | –
24 | COc1ccc(S(=O)(=O)N(Cc2cccnc2)c2c(C)cc(-c3ccc4c(c3)OCO4)cc2C(=O)NO)cc1 [Example 405, 5-Benzo[1,3]dioxol-5-yl-N-hydroxy-2-[(4-methoxy-benzenesulfonyl)-pyridin-3-ylmethyl-amino]-3-methyl-benzamide hydrochloride salt] | 151 | 5.8 | 176 | 4.1 | – | –
